Assays:
Assay in all cases: Kinobeads competition binding with immobilized CZC25342, mixed HeLa placenta lysates (Example 5, Table 7)
[1] = target: T1, kinases from mixed HeLa placenta lysates (Homo sapiens, UniProt P08581); settings: kinase MET; 10 μM free compound; HeLa Placenta lysate mix
T1 construct: capturing and identification of kinases from mixed HeLa placenta lysates; endogenous in cells; host or cells: mixed lysate of HeLa cells and placenta tissue
Experimental: (§1) To one aliquot of cell lysate 10 μM of the free compound (FIG. 2, CZC25342) was added and allowed to bind to proteins in the lysate. Then the affinity matrix with the immobilized compound was added to capture proteins that were not interacting with the previously added free compound. Beads were separated from the lysate and bead bound proteins were eluted in SDS sample buffer and subsequently separated by SDS-Polyacrylamide gel electrophoresis (FIG. 11). Suitable gel bands were cut out and subjected to in-gel proteolytic digestion with trypsin. The second lysate aliquot was processed identically, however no free compound was added (DMSO solvent control). Peptides originating from samples 1 and 2 were labeled with iTRAQ reagents (iTRAQ 114 and iTRAQ 117) and the combined samples were analyzed with a nano-flow liquid chromatography system coupled online to a tandem mass spectrometer (LC-MS/MS) experiment followed by iTRAQ reporter ion quantification in the MS/MS spectra as described in Example 2. The identified kinases are shown in Table 7 including the percent competition values for the sample to which 10 μM free compound had been added. In total of 83 different kinases were identified and competed by different degrees.

[2] = target: T2, kinases from mixed HeLa placenta lysates (Homo sapiens, UniProt P19784); settings: kinase CK2a2; 10 μM free compound; HeLa Placenta lysate mix
T2 construct: capturing and identification of kinases from mixed HeLa placenta lysates; endogenous in cells; host or cells: mixed lysate of HeLa cells and placenta tissue
Experimental: as §1

[3] = target: T3, kinases from mixed HeLa placenta lysates (Homo sapiens, UniProt P35916); settings: kinase FLT4; 10 μM free compound; HeLa Placenta lysate mix
T3 construct: capturing and identification of kinases from mixed HeLa placenta lysates; endogenous in cells; host or cells: mixed lysate of HeLa cells and placenta tissue
Experimental: as §1

[4] = target: T4, kinases from mixed HeLa placenta lysates (Homo sapiens, UniProt P35968); settings: kinase KDR; 10 μM free compound; HeLa Placenta lysate mix
T4 construct: capturing and identification of kinases from mixed HeLa placenta lysates; endogenous in cells; host or cells: mixed lysate of HeLa cells and placenta tissue
Experimental: as §1

[5] = target: T5, kinases from mixed HeLa placenta lysates (Homo sapiens, UniProt P36894); settings: kinase BMPR1A; 10 μM free compound; HeLa Placenta lysate mix
T5 construct: capturing and identification of kinases from mixed HeLa placenta lysates; endogenous in cells; host or cells: mixed lysate of HeLa cells and placenta tissue
Experimental: as §1

[6] = target: T6, kinases from mixed HeLa placenta lysates (Homo sapiens, UniProt P36897); settings: kinase TGFbR1; 10 μM free compound; HeLa Placenta lysate mix
T6 construct: capturing and identification of kinases from mixed HeLa placenta lysates; endogenous in cells; host or cells: mixed lysate of HeLa cells and placenta tissue
Experimental: as §1

[7] = target: T7, kinases from mixed HeLa placenta lysates (Homo sapiens, UniProt P43405); settings: kinase SYK; 10 μM free compound; HeLa Placenta lysate mix
T7 construct: capturing and identification of kinases from mixed HeLa placenta lysates; endogenous in cells; host or cells: mixed lysate of HeLa cells and placenta tissue
Experimental: as §1

[8] = target: T8, kinases from mixed HeLa placenta lysates (Homo sapiens, UniProt P48426); settings: kinase PIP5K2A; 10 μM free compound; HeLa Placenta lysate mix
T8 construct: capturing and identification of kinases from mixed HeLa placenta lysates; endogenous in cells; host or cells: mixed lysate of HeLa cells and placenta tissue
Experimental: as §1

[9] = target: T9, kinases from mixed HeLa placenta lysates (Homo sapiens, UniProt P49840); settings: kinase GSK3A; 10 μM free compound; HeLa Placenta lysate mix
T9 construct: capturing and identification of kinases from mixed HeLa placenta lysates; endogenous in cells; host or cells: mixed lysate of HeLa cells and placenta tissue
Experimental: as §1

[10] = target: T10, kinases from mixed HeLa placenta lysates (Homo sapiens, UniProt Q00535); settings: kinase CDK5; 10 μM free compound; HeLa Placenta lysate mix
T10 construct: capturing and identification of kinases from mixed HeLa placenta lysates; endogenous in cells; host or cells: mixed lysate of HeLa cells and placenta tissue
Experimental: as §1

[11] = target: T11, kinases from mixed HeLa placenta lysates (Homo sapiens, UniProt Q05397); settings: kinase FAK; 10 μM free compound; HeLa Placenta lysate mix
T11 construct: capturing and identification of kinases from mixed HeLa placenta lysates; endogenous in cells; host or cells: mixed lysate of HeLa cells and placenta tissue
Experimental: as §1

[12] = target: T12, kinases from mixed HeLa placenta lysates (Homo sapiens, UniProt Q13233); settings: kinase MAP3K1; 10 μM free compound; HeLa Placenta lysate mix
T12 construct: capturing and identification of kinases from mixed HeLa placenta lysates; endogenous in cells; host or cells: mixed lysate of HeLa cells and placenta tissue
Experimental: as §1

[13] = target: T13, kinases from mixed HeLa placenta lysates (Homo sapiens, UniProt Q13557); settings: kinase CaMK2d; 10 μM free compound; HeLa Placenta lysate mix
T13 construct: capturing and identification of kinases from mixed HeLa placenta lysates; endogenous in cells; host or cells: mixed lysate of HeLa cells and placenta tissue
Experimental: as §1

[14] = target: T14, kinases from mixed HeLa placenta lysates (Homo sapiens, UniProt Q14164); settings: kinase IKKe; 10 μM free compound; HeLa Placenta lysate mix
T14 construct: capturing and identification of kinases from mixed HeLa placenta lysates; endogenous in cells; host or cells: mixed lysate of HeLa cells and placenta tissue
Experimental: as §1

[15] = target: T15, kinases from mixed HeLa placenta lysates (Homo sapiens, UniProt Q14289); settings: kinase PYK2; 10 μM free compound; HeLa Placenta lysate mix
T15 construct: capturing and identification of kinases from mixed HeLa placenta lysates; endogenous in cells; host or cells: mixed lysate of HeLa cells and placenta tissue
Experimental: as §1

[16] = target: T16, kinases from mixed HeLa placenta lysates (Homo sapiens, UniProt Q16513); settings: kinase PKN2; 10 μM free compound; HeLa Placenta lysate mix
T16 construct: capturing and identification of kinases from mixed HeLa placenta lysates; endogenous in cells; host or cells: mixed lysate of HeLa cells and placenta tissue
Experimental: as §1

[17] = target: T17, kinases from mixed HeLa placenta lysates (Homo sapiens, UniProt Q16584); settings: kinase MLK3; 10 μM free compound; HeLa Placenta lysate mix
T17 construct: capturing and identification of kinases from mixed HeLa placenta lysates; endogenous in cells; host or cells: mixed lysate of HeLa cells and placenta tissue
Experimental: as §1

[18] = target: T18, kinases from mixed HeLa placenta lysates (Homo sapiens, UniProt Q5S007); settings: kinase LRRK2; 10 μM free compound; HeLa Placenta lysate mix
T18 construct: capturing and identification of kinases from mixed HeLa placenta lysates; endogenous in cells; host or cells: mixed lysate of HeLa cells and placenta tissue
Experimental: as §1

[19] = target: T19, kinases from mixed HeLa placenta lysates (Homo sapiens, UniProt Q7KZI7); settings: kinase MARK2; 10 μM free compound; HeLa Placenta lysate mix
T19 construct: capturing and identification of kinases from mixed HeLa placenta lysates; endogenous in cells; host or cells: mixed lysate of HeLa cells and placenta tissue
Experimental: as §1

[20] = target: T20, kinases from mixed HeLa placenta lysates (Homo sapiens, UniProt Q8TBX8); settings: kinase PIP5K2C; 10 μM free compound; HeLa Placenta lysate mix
T20 construct: capturing and identification of kinases from mixed HeLa placenta lysates; endogenous in cells; host or cells: mixed lysate of HeLa cells and placenta tissue
Experimental: as §1

[21] = target: T21, kinases from mixed HeLa placenta lysates (Homo sapiens, UniProt Q96C45); settings: kinase ULK4; 10 μM free compound; HeLa Placenta lysate mix
T21 construct: capturing and identification of kinases from mixed HeLa placenta lysates; endogenous in cells; host or cells: mixed lysate of HeLa cells and placenta tissue
Experimental: as §1

[22] = target: T22, kinases from mixed HeLa placenta lysates (Homo sapiens, UniProt Q96RR4); settings: kinase CaMKK2; 10 μM free compound; HeLa Placenta lysate mix
T22 construct: capturing and identification of kinases from mixed HeLa placenta lysates; endogenous in cells; host or cells: mixed lysate of HeLa cells and placenta tissue
Experimental: as §1

[23] = target: T23, kinases from mixed HeLa placenta lysates (Homo sapiens, UniProt Q9H2G2); settings: kinase SLK; 10 μM free compound; HeLa Placenta lysate mix
T23 construct: capturing and identification of kinases from mixed HeLa placenta lysates; endogenous in cells; host or cells: mixed lysate of HeLa cells and placenta tissue
Experimental: as §1

[24] = target: T24, kinases from mixed HeLa placenta lysates (Homo sapiens, UniProt Q9H422); settings: kinase HIPK3; 10 μM free compound; HeLa Placenta lysate mix
T24 construct: capturing and identification of kinases from mixed HeLa placenta lysates; endogenous in cells; host or cells: mixed lysate of HeLa cells and placenta tissue
Experimental: as §1

SMILES: CS(=O)(=O)Nc1ccccc1Nc1nc(Nc2cccc(OCCN)c2)ncc1F [CZC25342, N-(2-(2-(3-(2-aminoethoxy)phenylamino)-5-fluoropyrimidin-4-ylamino)phenyl)methanesulfonamide]
- Competition % MET [1]: 94.2%
- Competition % CK2a2 [2]: 95.4%
- Competition % FLT4 [3]: 88.2%
- Competition % KDR [4]: 92.5%
- Competition % BMPR1A [5]: 84.1%
- Competition % TGFbR1 [6]: 95.6%
- Competition % SYK [7]: 94.8%
- Competition % PIP5K2A [8]: 98.7%
- Competition % GSK3A [9]: 94.6%
- Competition % CDK5 [10]: 92.6%
- Competition % FAK [11]: 96%
- Competition % MAP3K1 [12]: 64.6%
- Competition % CaMK2d [13]: 40.6%
- Competition % IKKe [14]: 69%
- Competition % PYK2 [15]: 96.3%
- Competition % PKN2 [16]: 98%
- Competition % MLK3 [17]: 94.9%
- Competition % LRRK2 [18]: 87.8%
- Competition % MARK2 [19]: 93.4%
- Competition % PIP5K2C [20]: 97.3%
- Competition % ULK4 [21]: 84.7%
- Competition % CaMKK2 [22]: 96.3%
- Competition % SLK [23]: 95.2%
- Competition % HIPK3 [24]: 95.4%
